Among the data in patent publication US20240002375A1, “2-(INDAZOL-5-YL)-6-(PIPERIDIN-4-YL)-1,7-NAPHTHYRIDINE DERIVATIVES AND RELATED COMPOUNDS AS MODULATORS FOR SPLICING NUCLEIC ACIDS AND FOR THE TRE” (REMIX THERAPEUTICS INC., priority 2020, published 2024) are IC50 and AC50 values, retold here.

Holding throughout (assay type): cell-based
In one assay the test system is Target C CJ mRNA. As to the kind of experiment: Gene panel canonical junction qPCR splicing assay, Target C. The settings on record: Table 4, read-out: Target C IC50 (decrease in CJ mRNA levels). The method, boiled down:
(§1)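 A673 or K562 cells treated with compound; canonical-junction mRNA measured by RT-qPCR with junction-spanning primer/probe sets, normalized to GAPDH, GUSB or PPIA and DMSO (2^−ΔΔCt). IC50 for CJ decrease from 4-parameter logistic fit of percentage response.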

A further assay concerns HTT CJ mRNA. The assay is described as follows: Gene panel canonical junction qPCR splicing assay, HTT. The settings on record: Table 4, read-out: HTT IC50 (decrease in CJ mRNA levels). Summed up:
as §1

In the next assay the test system is HTT mRNA. The assay is described as follows: Splicing assay (RT-qPCR) of HTT mRNA alternative junction (AJ) and canonical junction (CJ). The note with it: A673 or K562 cells, 24 hours; for IC50: decrease in CJ mRNA, read-out: HTT CJ IC50; for AC50: increase in AJ mRNA, read-out: HTT AJ AC50. Summed up:
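HTT splice switching read as formation of an alternative-exon junction (AJ) versus the canonical junction (CJ) by one-step RT-qPCR on cell lysates, with GAPDH/GUSB housekeeping normalisation in K562 and PPIA in A673. Compounds: 11-point 3-fold series up to 10 uM, ≤0.25% DMSO, 24 h at 37 °C.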
On the technique in general: In qPCR the cycle at which signal appears reflects the starting amount.

In another assay the test system is SMN2 CJ mRNA. The assay is described as follows: Gene panel canonical junction qPCR splicing assay, SMN2. The note with it: Table 4, read-out: SMN2 IC50 (decrease in CJ mRNA levels). Summed up: as §1

For orientation: IC50 means the concentration needed to halve the response being measured. The AC50 is the midpoint of the concentration-response curve, whichever way the signal moves. For `Cn1cc2cc(-c3ccc4nc(C5CCNCC5)ccc4n3)c(O)cc2n1` [Compound 100, 2-methyl-5-[6-(piperidin-4-yl)-1,5-naphthyridin-2-yl]indazol-6-ol], the IC50 with Target C CJ mRNA, in the assay on HTT CJ mRNA, in the assay on HTT mRNA and in the assay on SMN2 CJ mRNA was under 100 nM each time. Also, the AC50 with HTT mRNA was in the range of 100 to 1000 nM.

Consider `Cc1c(O)c(-c2ccc3nc(C4CCNCC4)ccc3n2)cc2cn(C)nc12` [Compound 101, 2,7-dimethyl-5-[6-(piperidin-4-yl)-1,5-naphthyridin-2-yl]indazol-6-ol], for which the IC50 with Target C CJ mRNA, with HTT CJ mRNA, with HTT mRNA and in the assay on SMN2 CJ mRNA was under 100 nM throughout. Moreover, the AC50 in the assay on HTT mRNA was under 100 nM.

For the compound `Cn1cc2cc(-c3ccc4nc(C5CCNCC5)ccc4n3)c(O)c(F)c2n1` [Compound 102, 7-fluoro-2-methyl-5-[6-(piperidin-4-yl)-1,5-naphthyridin-2-yl]indazol-6-ol], the IC50 in the assay with Target C CJ mRNA, in the assay with HTT CJ mRNA, in the assay on HTT mRNA and in the assay on SMN2 CJ mRNA was under 100 nM each time. The AC50 in the assay with HTT mRNA is under 100 nM.

Turning to `Cc1cn2nc(-c3ccc4nc(C5CCNCC5)ccc4n3)c(O)cc2n1` [Compound 103, 2-methyl-6-[6-(piperidin-4-yl)-1,5-naphthyridin-2-yl]imidazo[1,2-b]pyridazin-7-ol], the IC50 in the assay on Target C CJ mRNA is 1000 to 10000 nM; with HTT CJ mRNA, 100 to 1000 nM; in the assay on HTT mRNA it was 100 to 1000 nM; with SMN2 CJ mRNA, over 10000 nM. For the same compound, in the assay on HTT mRNA, the AC50 fell in the range of 100 to 1000 nM.

On to `Cn1cc2c(O)c(-c3ccc4nc(C5CCNCC5)ccc4n3)ccc2n1` [Compound 105, 2-methyl-5-[6-(piperidin-4-yl)-1,5-naphthyridin-2-yl]indazol-4-ol], for which the IC50 was 1000 to 10000 nM in the assay with Target C CJ mRNA, over 10000 nM in the assay with HTT CJ mRNA, over 10000 nM in the assay with HTT mRNA and 1000 to 10000 nM with SMN2 CJ mRNA. Further, the AC50 with HTT mRNA is over 10000 nM.

In the case of `Cn1cc2c(O)c(-c3cc4ccc(C5CCNCC5)nc4cn3)ccc2n1` [Compound 106, 2-methyl-5-[2-(piperidin-4-yl)-1,7-naphthyridin-6-yl]indazol-4-ol], the IC50 in the assay with Target C CJ mRNA lay in the range of 1000 to 10000 nM; in the assay on HTT CJ mRNA it was 1000 to 10000 nM; in the assay on HTT mRNA, 1000 to 10000 nM; in the assay on SMN2 CJ mRNA, 100 to 1000 nM. For the same compound, in the assay with HTT mRNA, the AC50 was 1000 to 10000 nM.

In the case of `Cn1cc2cc(-c3ncc4nc(C5CCNCC5)ccc4n3)c(O)cc2n1` [Compound 107, 2-methyl-5-[6-(piperidin-4-yl)pyrido[3,2-d]pyrimidin-2-yl]indazol-6-ol], the IC50 in the assay on Target C CJ mRNA is 1000 to 10000 nM; with HTT CJ mRNA, 100 to 1000 nM; in the assay with HTT mRNA it was 100 to 1000 nM; in the assay on SMN2 CJ mRNA, under 100 nM. The AC50 with HTT mRNA was in the range of 100 to 1000 nM.

Turning to `Cn1cc2c(O)c(-c3ncc4nc(C5CCNCC5)ccc4n3)ccc2n1` [Compound 108, 2-methyl-5-[6-(piperidin-4-yl)pyrido[3,2-d]pyrimidin-2-yl]indazol-4-ol], the IC50 with Target C CJ mRNA was 1000 to 10000 nM; with HTT CJ mRNA it was 1000 to 10000 nM; in the assay on HTT mRNA, 1000 to 10000 nM; in the assay on SMN2 CJ mRNA, under 100 nM. Also, in the assay on HTT mRNA, the AC50 was in the range of 1000 to 10000 nM.

As to `Cn1cc2cc(-c3ccc4cc(C5CCNCC5)ccc4n3)c(O)cc2n1` [Compound 109, 2-methyl-5-[6-(piperidin-4-yl)quinolin-2-yl]indazol-6-ol], the IC50 with Target C CJ mRNA was 100 to 1000 nM; with HTT CJ mRNA, under 100 nM; in the assay with HTT mRNA, under 100 nM; in the assay on SMN2 CJ mRNA it was under 100 nM. Also, the AC50 in the assay on HTT mRNA fell in the range of 100 to 1000 nM.

In the case of `CN(C(=O)Nc1cn[nH]c1)c1cc2nc(N3CCNCC3)ccc2cn1` [Compound 110, 1-methyl-1-[2-(piperazin-1-yl)-1,6-naphthyridin-7-yl]-3-(1H-pyrazol-4-yl)urea], the IC50 is under 100 nM in the assay on Target C CJ mRNA, over 10000 nM in the assay with HTT CJ mRNA and over 10000 nM with SMN2 CJ mRNA. The AC50 in the assay with HTT mRNA was over 10000 nM.

With `O=C(Nc1cn[nH]c1)Nc1cc2nc(N3CCNCC3)ccc2cn1` [Compound 111, 1-[2-(piperazin-1-yl)-1,6-naphthyridin-7-yl]-3-(1H-pyrazol-4-yl)urea], the IC50 with Target C CJ mRNA, with HTT CJ mRNA, with HTT mRNA and in the assay on SMN2 CJ mRNA was over 10000 nM throughout. In addition, the AC50 in the assay on HTT mRNA was over 10000 nM.

Turning to `O=C(NCc1ccn[nH]1)Nc1cc2nc(N3CCNCC3)ccc2cn1` [Compound 112, 1-[2-(piperazin-1-yl)-1,6-naphthyridin-7-yl]-3-(2H-pyrazol-3-ylmethyl)urea], the IC50 in the assay on Target C CJ mRNA, with HTT CJ mRNA, in the assay with HTT mRNA and with SMN2 CJ mRNA was over 10000 nM each time. Moreover, in the assay on HTT mRNA, the AC50 was over 10000 nM.

On to `Cn1cc2cc(-c3ccc4c(F)c(C5CCNCC5)ccc4n3)c(O)cc2n1` [Compound 115, 5-[5-fluoro-6-(piperidin-4-yl)quinolin-2-yl]-2-methylindazol-6-ol], for which the IC50 was 1000 to 10000 nM with Target C CJ mRNA, 1000 to 10000 nM in the assay with HTT CJ mRNA, 1000 to 10000 nM in the assay on HTT mRNA and under 100 nM in the assay on SMN2 CJ mRNA. For the same compound, in the assay with HTT mRNA, the AC50 lay in the range of 1000 to 10000 nM.

Take `CN1CCN(c2ccc3nc(-c4cc5cn(C)nc5cc4O)ccc3n2)CC1` [Compound 116, 2-methyl-5-[6-(4-methylpiperazin-1-yl)-1,5-naphthyridin-2-yl]indazol-6-ol]: the IC50 in the assay on Target C CJ mRNA is 1000 to 10000 nM; with HTT CJ mRNA it was 1000 to 10000 nM; in the assay on HTT mRNA, 1000 to 10000 nM; in the assay with SMN2 CJ mRNA it was under 100 nM. In addition, the AC50 in the assay on HTT mRNA is 1000 to 10000 nM.

Turning to `CC1CN(c2ccc3nc(-c4cc5cn(C)nc5cc4O)ccc3n2)CCN1` (stereo not shown) [Compound 117, 2-methyl-5-[6-(3-methylpiperazin-1-yl)-1,5-naphthyridin-2-yl]indazol-6-ol], the IC50 in the assay on Target C CJ mRNA was 1000 to 10000 nM; in the assay on HTT CJ mRNA it was 1000 to 10000 nM; in the assay on HTT mRNA, 1000 to 10000 nM; with SMN2 CJ mRNA, under 100 nM. Also, the AC50 in the assay with HTT mRNA lay within 1000 to 10000 nM.

For `CC1CN(c2ccc3nc(-c4cc5cn(C)nc5cc4O)ccc3n2)CCN1C` (stereo not shown) [Compound 118, 5-[6-(3,4-dimethylpiperazin-1-yl)-1,5-naphthyridin-2-yl]-2-methylindazol-6-ol], the IC50 with Target C CJ mRNA was 1000 to 10000 nM; in the assay with HTT CJ mRNA, 1000 to 10000 nM; in the assay on HTT mRNA, 1000 to 10000 nM; in the assay on SMN2 CJ mRNA it was under 100 nM. The AC50 in the assay with HTT mRNA fell in the range of 1000 to 10000 nM.

Regarding `CCC1CN(c2ccc3nc(-c4cc5cn(C)nc5cc4O)ccc3n2)CCN1` (stereo not shown) [Compound 119, 5-[6-(3-ethylpiperazin-1-yl)-1,5-naphthyridin-2-yl]-2-methylindazol-6-ol], the IC50 in the assay on Target C CJ mRNA was 1000 to 10000 nM; with HTT CJ mRNA, 100 to 1000 nM; in the assay with HTT mRNA, 100 to 1000 nM; with SMN2 CJ mRNA, under 100 nM. Further, the concentration at half-maximal activity (AC50) in the assay on HTT mRNA was 1000 to 10000 nM.

With `Cn1cc2cc(-c3ccc4nc(N5CCNC(C)(C)C5)ccc4n3)c(O)cc2n1` [Compound 120, 5-[6-(3,3-dimethylpiperazin-1-yl)-1,5-naphthyridin-2-yl]-2-methylindazol-6-ol], the IC50 was 1000 to 10000 nM in the assay with Target C CJ mRNA, 1000 to 10000 nM with HTT CJ mRNA, 1000 to 10000 nM in the assay with HTT mRNA and under 100 nM in the assay with SMN2 CJ mRNA. Further, in the assay on HTT mRNA, the AC50 was in the range of 1000 to 10000 nM.

Take `Cn1cc2cc(-c3ccc4nc(N5CCNC6(CC6)C5)ccc4n3)c(O)cc2n1` [Compound 121, 5-(6-[4,7-diazaspiro[2.5]octan-7-yl]-1,5-naphthyridin-2-yl)-2-methylindazol-6-ol]: the IC50 with Target C CJ mRNA, with HTT CJ mRNA, in the assay with HTT mRNA and in the assay on SMN2 CJ mRNA was 1000 to 10000 nM throughout. Also, the AC50 in the assay on HTT mRNA lay in the range of 1000 to 10000 nM.
